Assays:
several DNA polymerases = type: biochemical; settings: preliminary results
Experimental: (§1) All known DNA polymerases require either Mg^2+ or Mn^2+ as an added divalent cation for activity. AMV DNA polymerase used Mg^2+ as an added divalent cation and the maximum rate of polymerization with poly (A).oligo (dT) was attained at 5 mM Mg^2+. […] Thymidine monophosphate incorporation with Be^2+ was less than 0.3% of that obtained with 5 mM Mg^2+.

AMV DNA polymerase [1] = assay: Fidelity of in vitro DNA synthesis (error frequency) with AMV DNA polymerase copying synthetic polynucleotide templates; settings: for Class: Table 1, classes 1-3 not defined
Description: In this invention, the ability of carcinogens to decrease the fidelity of in vitro DNA synthesis will be used to screen for carcinogenic or mutagenic agents. The system uses synthetic polynucleotides of defined composition which may be copied in the test tubes with procaryotic, eucaryotic or viral DNA polymerases. The use of synthetic polynucleotides of defined composition allows the measurement of the simultaneous incorporation of the correct, complementary nucleotide and an incorrect, non-complementary nucleotide. The correct nucleotide is labeled with [α-^32 P] of low specific activity and the incorrect nucleotide is labeled with [^3 H] of high specific activity. Through this double labeled reaction it is possible to determine the simultaneous incorporation of both nucleotides and thus to determine an error frequency. The error frequency may be defined as the ratio of the incorrect/correct nucleotide incorporation. Agents which increase this error frequency may be scored as positive. […] Agents which score positive would be checked using different templates to underscore the positive results. In this system different polymerases will be used as well as different templates. One would expect that most carcinogens would change the fidelity of DNA synthesis with different polymerases as well as with different templates though this need not be the case.
Each assay will consist of a polymerase, a polynucleotide template that only contains one or two nucleotides, a complementary nucleotide and a non-complementary nucleotide as well as magnesium. Both of the nucleotides will be labeled by radioactive precursors and the ratio between the two is to be used for a measure of error frequency in the system. In instances where a template requires two complementary nucleotides, only one will be radioactively labeled.
Reactions (total volume 0.05 ml) which measured complementary nucleotide incorporation contained 50 mM Tris-HCL (pH 8.0), 20 mM KCl, 5 mM dithiothreitol, 5 mM MgCl2, 2μg BSA, […] [α-^32 P] -dTTP (60 dpm/pmole), 1μg poly (A).oligo (dT) (1:1.5 mass ratio), and 0.45 μg of AMV DNA polymerase. For simultaneous quantitation of complementary and non-complementary nucleotide incorporation each reaction was modified to contain 26μM [α-^32 P]dTTP (12 dpm/pmole) and 23μM [^3 H]-dCTP (50,000 dpm/pmole). […] Metals were added directly to the reaction mixture as aqueous solutions of chloride salts. All reactions were incubated for 60 min. at 37° C. Incorporation of radioactive nucleotides into an acid-insoluble and alkali-resistant product was determined by using the precipitation-solubilization procedure as described by Battula and Loeb. All experiments were performed in triplicate and the averages were determined.
In order to determine the effect of different metals on the accuracy of DNA replication, metal cations were added as chloride salts directly to the polymerase reaction. In these experiments, poly (A).oligo (dT) was the template-primer and the simultaneous incorporation of complementary nucleotide, [α-^32 P]-dTMP, and the non-complementery nucleotide, [^3 H]-dCMP, was determined.
The effect of metal salts on the fidelity of DNA synthesis was examined by testing each of the metal salts at a minimum of seven different concentrations.

[2] = known status of the compound; cited from earlier work
[3] = species as printed in the value; cited from earlier work
AMV DNA polymerase [4] = assay: Metal requirements for catalysis by AMV DNA polymerase; type: biochemical, avian myeloblastosis virus; settings: poly (A).oligo (dT)
Experimental: as §1

[5] = test system: sea urchin nuclear DNA polymerase; assay: Fidelity of DNA synthesis with sea urchin nuclear DNA polymerase; type: biochemical; settings: template poly (dA).oligo (dT)
Description: It is one of 15 carcinogens officially listed by the U.S. government as possibly being carcinogenic in humans.

[6] = 2 mM added cation + Mg^2+ 5 mM, poly (A).oligo (dT)
[7] = 5 mM added cation + Mg^2+ 5 mM, poly (A).oligo (dT)
[8] = 10 mM added cation + Mg^2+ 5 mM, poly (A).oligo (dT)
[9] = Beryllium Chloride 1 mM, poly (A) . oligo (dT), non-complementary rGTP
[10] = Beryllium Chloride 1 mM, poly (C) . oligo (dG), non-complementary dATP
[11] = Beryllium Chloride 1 mM, poly d(A-T), non-complementary dCTP
[12] = Beryllium Chloride 2 mM, poly (A) . oligo (dT), non-complementary rGTP
[13] = Beryllium Chloride 2 mM, poly (C) . oligo (dG), non-complementary dATP
[14] = Beryllium Chloride 3 mM, poly d(A-T), non-complementary dCTP
[15] = Beryllium Chloride 4 mM, poly (C) . oligo (dG), non-complementary dATP
[16] = Beryllium Chloride 5 mM, poly (A) . oligo (dT), non-complementary rGTP
[17] = Beryllium Chloride 5 mM, poly (C) . oligo (dG), non-complementary dATP
[18] = Beryllium Chloride 5 mM, poly d(A-T), non-complementary dCTP
[19] = Beryllium Chloride 10 mM, poly (A) . oligo (dT), non-complementary rGTP

## [Cl-].[Cl-].[Co+2] [CoCl2]
Several DNA polymerases
  metal activator function: serve as metal activators with several DNA polymerases
AMV DNA polymerase [1]; template poly (C).oligo (dG)
  Class: 1
  Metal Concentration which yielded the largest observed change in error rate: 4 mM
AMV DNA polymerase [1]; various templates
  effect on the fidelity of DNA synthesis (in words): alter the fidelity
[2]
  Carcinogen or Mutagen: +

## [Cl][Ni][Cl] [NiCl2]
Several DNA polymerases
  metal activator function: serve as metal activators with several DNA polymerases
AMV DNA polymerase [1]; template poly (C).oligo (dG)
  Class: 1
  Metal Concentration which yielded the largest observed change in error rate: 8 mM
AMV DNA polymerase [1]; various templates
  effect on the fidelity of DNA synthesis (in words): alter the fidelity

## [Be+2].[Cl-].[Cl-] [BeCl2, beryllium chloride]
[3]
  carcinogenicity in animals: induces pulmonary carcinomas in monkey and osteogenic sarcomas in rabbits
AMV DNA polymerase [4]; Be^2+ in the absence of Mg^2+, 60 min
  Thymidine monophosphate incorporation relative to that obtained with 5 mM Mg^2+: less than 0.3%
AMV DNA polymerase [4]; absence of Mg^2+, Be^2+ up to 15 mM
  ability to substitute for Mg^2+ as added divalent cation: did not result in detectable poly (dT) synthesis
AMV DNA polymerase [1]; [6]
  Complementary Nucleotide (pmoles dTMP): 291 pmol
  Non-Complementary Nucleotide (pmoles dCMP): 0.372 pmol
AMV DNA polymerase [1]; 2 mM added cation + Mg^2+ 5 mM, poly (A).oligo (dT), dCMP/dTMP
  Error Frequency: 1/782
AMV DNA polymerase [1]; [7]
  Complementary Nucleotide (pmoles dTMP): 133 pmol
  Non-Complementary Nucleotide (pmoles dCMP): 0.294 pmol
AMV DNA polymerase [1]; 5 mM added cation + Mg^2+ 5 mM, poly (A).oligo (dT), dCMP/dTMP
  Error Frequency: 1/453
AMV DNA polymerase [1]; [8]
  Complementary Nucleotide (pmoles dTMP): 8.6 pmol
  Non-Complementary Nucleotide (pmoles dCMP): 0.114 pmol
AMV DNA polymerase [1]; 10 mM added cation + Mg^2+ 5 mM, poly (A).oligo (dT), dCMP/dTMP
  Error Frequency: 1/75
AMV DNA polymerase [1]; [9]
  Complementary Nucleotide Incorporation: 568 pmol
  Error Frequency: 1/6104
  Non-Complementary Nucleotide Incorporation: 0.093 pmol
AMV DNA polymerase [1]; [10]
  Complementary Nucleotide Incorporation: 181 pmol
  Error Frequency: 1/1649
  Non-Complementary Nucleotide Incorporation: 0.110 pmol
AMV DNA polymerase [1]; [11]
  Complementary Nucleotide Incorporation: 209 pmol
  Error Frequency: 1/1306
  Non-Complementary Nucleotide Incorporation: 0.160 pmol
AMV DNA polymerase [1]; [12]
  Complementary Nucleotide Incorporation: 503 pmol
  Error Frequency: 1/2704
  Non-Complementary Nucleotide Incorporation: 0.186 pmol
AMV DNA polymerase [1]; [13]
  Complementary Nucleotide Incorporation: 81 pmol
  Error Frequency: 1/1025
  Non-Complementary Nucleotide Incorporation: 0.079 pmol
AMV DNA polymerase [1]; [14]
  Complementary Nucleotide Incorporation: 137 pmol
  Error Frequency: 1/979
  Non-Complementary Nucleotide Incorporation: 0.140 pmol
AMV DNA polymerase [1]; [15]
  Complementary Nucleotide Incorporation: 57 pmol
  Error Frequency: 1/919
  Non-Complementary Nucleotide Incorporation: 0.062 pmol
AMV DNA polymerase [1]; [16]
  Complementary Nucleotide Incorporation: 128 pmol
  Error Frequency: 1/487
  Non-Complementary Nucleotide Incorporation: 0.263 pmol
AMV DNA polymerase [1]; [17]
  Complementary Nucleotide Incorporation: 64 pmol
  Error Frequency: 1/831
  Non-Complementary Nucleotide Incorporation: 0.077 pmol
AMV DNA polymerase [1]; [18]
  Complementary Nucleotide Incorporation: 97 pmol
  Error Frequency: 1/689
  Non-Complementary Nucleotide Incorporation: 0.140 pmol
AMV DNA polymerase [1]; [19]
  Complementary Nucleotide Incorporation: 52 pmol
  Error Frequency: 1/149
  Non-Complementary Nucleotide Incorporation: 0.349 pmol
AMV DNA polymerase [1]; template poly (A).oligo (dT)
  Class: 1
  Metal Concentration which yielded the largest observed change in error rate: 10 mM
AMV DNA polymerase [1]; poly (A).oligo (dT), dTMP complementary, dCMP non-complementary
  effect on error frequency (in words): error frequency increased
AMV DNA polymerase [1]; various templates
  effect on the fidelity of DNA synthesis (in words): decreases the fidelity
[2]
  Carcinogen or Mutagen: +

## O=C1CCO1 [β-propiolactone]
[3]
  carcinogenicity in animals: carcinogen in mice, rats and hamsters
AMV DNA polymerase [1]; template poly (dA).oligo (dT)
  effect on the fidelity of DNA synthesis (in words): decreases the fidelity
[5]
  effect on the fidelity of DNA synthesis (in words): decreases the fidelity
